Data as given in US8580794B2 (AbbVie Inc., priority 2009, dated 2013).

Target: GST-Bc1-2 (Homo sapiens, UniProt P10415)
Experiment: Time Resolved-Fluorescence Resonance Energy Transfer (TR-FRET) Bcl-2 binding assay with F-Bak peptide probe
Conditions: GST-Bcl-2 1 nM, F-Bak probe 100 nM, Tb-anti-GST 1 nM; '<' = below limit of detection; read-out: TR-FRET Bcl-2 Binding Ki
Experimental: The samples are then mixed on a shaker for 1 minute and incubated for an additional 3 hours at room temperature. For each assay, the probe/antibody and protein/probe/antibody were included on each assay plate as negative and positive controls, respectively.
The samples were then mixed on a shaker for 1 minute and incubated for an additional 3 hours at room temperature. For each assay, the probe/antibody and protein/probe/antibody were included on each assay plate as negative and positive controls, respectively.

GST-Bc1-2, sequence (P10415 whole entry): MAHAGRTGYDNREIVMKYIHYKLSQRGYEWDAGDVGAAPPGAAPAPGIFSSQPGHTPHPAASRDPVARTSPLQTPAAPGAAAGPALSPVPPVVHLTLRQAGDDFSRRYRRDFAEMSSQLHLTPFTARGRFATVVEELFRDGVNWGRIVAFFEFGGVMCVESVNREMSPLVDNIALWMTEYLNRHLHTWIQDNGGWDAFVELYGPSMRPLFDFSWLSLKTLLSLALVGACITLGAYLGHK

| SMILES | Ki [nM] |
| --- | --- |
| CC1(C)CCC(CN2CCN(c3ccc(C(=O)NS(=O)(=O)c4cnc(OCC5(F)CCOCC5)c(C#N)c4)c(Oc4cnc5[nH]ccc5c4)c3)CC2)=C(c2ccc(Cl)cc2)C1 [Example 56, 4-(4-{[2-(4-chlorophenyl)-4,4-dimethylcyclohex-1-en-1-yl]methyl}piperazin-1-yl)-N-({5-cyano-6-[(4-fluorotetrahydro-2H-pyran-4-yl)methoxy]pyridin-3-yl}sulfonyl)-2-(1H-pyrrolo[2,3-b]pyridin-5-yloxy)benzamide] | 0.037 |
| CC1(C)CCC(c2ccc(Cl)cc2)=C(CN2CCN(c3ccc(C(=O)NS(=O)(=O)c4cnc(OCC5CCOCC5)c(C#N)c4)c(Oc4cnc5[nH]ccc5c4)c3)CC2)C1 [Example 76, 4-(4-{[2-(4-chlorophenyl)-5,5-dimethylcyclohex-1-en-1-yl]methyl}piperazin-1-yl)-N-{[5-cyano-6-(tetrahydro-2H-pyran-4-ylmethoxy)pyridin-3-yl]sulfonyl}-2-(1H-pyrrolo[2,3-b]pyridin-5-yloxy)benzamide] | 0.196 |
| CC(C)N1CCC2(CCC(c3ccc(Cl)cc3)=C(CN3CCN(c4ccc(C(=O)NS(=O)(=O)c5ccc(NCC6CCOCC6)c(C(F)(F)F)c5)c(Oc5cnc6[nH]ccc6c5)c4)CC3)C2)CC1 [Example 273, 4-(4-{[9-(4-chlorophenyl)-3-isopropyl-3-azaspiro[5.5]undec-8-en-8-yl]methyl}piperazin-1-yl)-2-(1H-pyrrolo[2,3-b]pyridin-5-yloxy)-N-({4-[(tetrahydro-2H-pyran-4-ylmethyl)amino]-3-(trifluoromethyl)phenyl}sulfonyl)benzamide] | 0.035 |
| CC1(C)CCC(CN2CCN(c3ccc(C(=O)NS(=O)(=O)c4ccc(NCC5CCOCC5)c(S(F)(F)(F)(F)F)c4)c(Oc4cnc5[nH]ccc5c4)c3)CC2)=C(c2ccc(Cl)cc2)C1 [Example 233, 4-(4-{[2-(4-chlorophenyl)-4,4-dimethylcyclohex-1-en-1-yl]methyl}piperazin-1-yl)-N-({3-(pentafluoro-lambda˜6˜-sulfanyl)-4-[(tetrahydro-2H-pyran-4-ylmethyl)amino]phenyl}sulfonyl)-2-(1H-pyrrolo[2,3-b]pyridin-5-yloxy)benzamide] | 1.65 |
| CC1(C)CCC(CN2CCN(c3ccc(C(=O)NS(=O)(=O)c4ccc(OCC5(F)CCOCC5)c(Cl)c4)c(Oc4cnc5[nH]ccc5c4)c3)CC2)=C(c2ccc(Cl)cc2)C1 [Example 286, N-({3-chloro-4-[(4-fluorotetrahydro-2H-pyran-4-yl)methoxy]phenyl}sulfonyl)-4-(4-{[2-(4-chlorophenyl)-4,4-dimethylcyclohex-1-en-1-yl]methyl}piperazin-1-yl)-2-(1H-pyrrolo[2,3-b]pyridin-5-yloxy)benzamide] | < 0.01 |
| CC1(C)CCC(c2ccc(Cl)cc2)=C(CN2CCN(c3ccc(C(=O)NS(=O)(=O)c4ccc(OCC5(F)CCOCC5)c([N+](=O)[O-])c4)c(Oc4cnc5[nH]ccc5c4)c3)CC2)C1 [Example 119, 4-(4-{[2-(4-chlorophenyl)-5,5-dimethylcyclohex-1-en-1-yl]methyl}piperazin-1-yl)-N-({4-[(4-fluorotetrahydro-2H-pyran-4-yl)methoxy]-3-nitrophenyl}sulfonyl)-2-(1H-pyrrolo[2,3-b]pyridin-5-yloxy)benzamide] | < 0.01 |
| CC1(C)CCC(CN2CCN(c3ccc(C(=O)NS(=O)(=O)c4ccc(NC5CN(C6CCOC6)C5)c([N+](=O)[O-])c4)c(Oc4cnc5[nH]ccc5c4)c3)CC2)=C(c2ccc(Cl)cc2)C1 (centres unmarked) [Example 117, 4-(4-{[2-(4-chlorophenyl)-4,4-dimethylcyclohex-1-en-1-yl]methyl}piperazin-1-yl)-N-({3-nitro-4-[(1-tetrahydrofuran-3-ylazetidin-3-yl)amino]phenyl}sulfonyl)-2-(1H-pyrrolo[2,3-b]pyridin-5-yloxy)benzamide] | < 0.01 |
| CC1(C)CCC(CN2CCN(c3ccc(C(=O)NS(=O)(=O)c4ccc(OCC5CN(C6CC6)CCO5)c([N+](=O)[O-])c4)c(Oc4cnc5[nH]ccc5c4)c3)CC2)=C(c2ccc(Cl)cc2)C1 (centres unmarked) [Example 354, 4-(4-{[2-(4-chlorophenyl)-4,4-dimethylcyclohex-1-en-1-yl]methyl}piperazin-1-yl)-N-({4-[(4-cyclopropylmorpholin-2-yl)methoxy]-3-nitrophenyl}sulfonyl)-2-(1H-pyrrolo[2,3-b]pyridin-5-yloxy)benzamide] | 0.01 |
| CC1(C)CCC(CN2CCN(c3ccc(C(=O)NS(=O)(=O)c4ccc(NC[C@@H]5CCCOC5)c([N+](=O)[O-])c4)c(Oc4cnc5[nH]ccc5c4)c3)CC2)=C(c2ccc(Cl)cc2)C1 [Example 11, 4-(4-{[2-(4-chlorophenyl)-4,4-dimethylcyclohex-1-en-1-yl]methyl}piperazin-1-yl)-N-[(3-nitro-4-{[(3S)-tetrahydro-2H-pyran-3-ylmethyl]amino}phenyl)sulfonyl]-2-(1H-pyrrolo[2,3-b]pyridin-5-yloxy)benzamide] | 0.016 |
| CN(C)CC(=O)N1CCC(COc2ccc(S(=O)(=O)NC(=O)c3ccc(N4CCN(CC5=C(c6ccc(Cl)cc6)CC(C)(C)CC5)CC4)cc3Oc3cnc4[nH]ccc4c3)cc2Cl)CC1 [Example 295, N-[(3-chloro-4-{[1-(N,N-dimethylglycyl)piperidin-4-yl]methoxy}phenyl)sulfonyl]-4-(4-{[2-(4-chlorophenyl)-4,4-dimethylcyclohex-1-en-1-yl]methyl}piperazin-1-yl)-2-(1H-pyrrolo[2,3-b]pyridin-5-yloxy)benzamide] | < 0.01 |
| CC1(C)CCC(CN2CCN(c3ccc(C(=O)NS(=O)(=O)c4ccc(OCc5ccoc5)c([N+](=O)[O-])c4)c(Oc4cnc5[nH]ccc5c4)c3)CC2)=C(c2ccc(Cl)cc2)C1 [Example 279, 4-(4-{[2-(4-chlorophenyl)-4,4-dimethylcyclohex-1-en-1-yl]methyl}piperazin-1-yl)-N-{[4-(3-furylmethoxy)-3-nitrophenyl]sulfonyl}-2-(1H-pyrrolo[2,3-b]pyridin-5-yloxy)benzamide] | 0.035 |
| CC(=O)N1CCC(CNc2ccc(S(=O)(=O)NC(=O)c3ccc(N4CCN(CC5=C(c6ccc(Cl)cc6)CC(C)(C)CC5)CC4)cc3Oc3cnc4[nH]ccc4c3)cc2[N+](=O)[O-])C1 (centres unmarked) [Example 153, N-[(4-{[(1-acetylpyrrolidin-3-yl)methyl]amino}-3-nitrophenyl)sulfonyl]-4-(4-{[2-(4-chlorophenyl)-4,4-dimethylcyclohex-1-en-1-yl]methyl}piperazin-1-yl)-2-(1H-pyrrolo[2,3-b]pyridin-5-yloxy)benzamide] | < 0.01 |
| CN1CCC(Nc2ccc(S(=O)(=O)NC(=O)c3ccc(N4CCN(CC5=C(c6ccc(Cl)cc6)CC(C)(C)CC5)CC4)cc3Oc3cccc4[nH]c5ccccc5c34)cc2[N+](=O)[O-])CC1 [Example 7, 2-(9H-carbazol-4-yloxy)-4-(4-{[2-(4-chlorophenyl)-4,4-dimethylcyclohex-1-en-1-yl]methyl}piperazin-1-yl)-N-({4-[(1-methylpiperidin-4-yl)amino]-3-nitrophenyl}sulfonyl)benzamide] | 4.92 |
| CC1(C)CCC(CN2CCN(c3ccc(C(=O)NS(=O)(=O)c4ccc(N[C@@H]5CCN(S(C)(=O)=O)C5)c([N+](=O)[O-])c4)c(Oc4cnc5[nH]ccc5c4)c3)CC2)=C(c2ccc(Cl)cc2)C1 [Example 149, 4-(4-{[2-(4-chlorophenyl)-4,4-dimethylcyclohex-1-en-1-yl]methyl}piperazin-1-yl)-N-[(4-{[(3R)-1-(methylsulfonyl)pyrrolidin-3-yl]amino}-3-nitrophenyl)sulfonyl]-2-(1H-pyrrolo[2,3-b]pyridin-5-yloxy)benzamide] | < 0.01 |
| CN1CCC(COc2ccc(S(=O)(=O)NC(=O)c3ccc(N4CCN(CC5=C(c6ccc(Cl)cc6)CC(C)(C)CC5)CC4)cc3Oc3cnc4[nH]ccc4c3)cc2[N+](=O)[O-])CC1 [Example 48, 4-(4-{[2-(4-chlorophenyl)-4,4-dimethylcyclohex-1-en-1-yl]methyl}piperazin-1-yl)-N-({4-[(1-methylpiperidin-4-yl)methoxy]-3-nitrophenyl}sulfonyl)-2-(1H-pyrrolo[2,3-b]pyridin-5-yloxy)benzamide] | < 0.01 |
| CC1(C)CCC(CN2CCN(c3ccc(C(=O)NS(=O)(=O)c4ccc(NC5CCN(S(C)(=O)=O)CC5)c([N+](=O)[O-])c4)c(Oc4cnc5[nH]ccc5c4)c3)CC2)=C(c2ccc(Cl)cc2)C1 [Example 80, 4-(4-{[2-(4-chlorophenyl)-4,4-dimethylcyclohex-1-en-1-yl]methyl}piperazin-1-yl)-N-[(4-{[1-(methylsulfonyl)piperidin-4-yl]amino}-3-nitrophenyl)sulfonyl]-2-(1H-pyrrolo[2,3-b]pyridin-5-yloxy)benzamide] | < 0.01 |
| COC1(Cc2ccccc2-c2ccc(Cl)cc2)CCN(c2ccc(C(=O)NS(=O)(=O)c3cnc(OCC4(F)CCOCC4)c(Cl)c3)c(Oc3cnc4[nH]ccc4c3)c2)CC1 [Example 263, 4-{4-[(4′-chlorobiphenyl-2-yl)methyl]-4-methoxypiperidin-1-yl}-N-({5-chloro-6-[(4-fluorotetrahydro-2H-pyran-4-yl)methoxy]pyridin-3-yl}sulfonyl)-2-(1H-pyrrolo[2,3-b]pyridin-5-yloxy)benzamide] | 0.156 |
| CC1(C)CCC(CN2CCN(c3ccc(C(=O)NS(=O)(=O)c4ccc(N[C@@H]5CCN(C6CC6)C5)c([N+](=O)[O-])c4)c(Oc4cnc5[nH]ccc5c4)c3)CC2)=C(c2ccc(Cl)cc2)C1 [Example 144, 4-(4-{[2-(4-chlorophenyl)-4,4-dimethylcyclohex-1-en-1-yl]methyl}piperazin-1-yl)-N-[(4-{[(3R)-1-cyclopropylpyrrolidin-3-yl]amino}-3-nitrophenyl)sulfonyl]-2-(1H-pyrrolo[2,3-b]pyridin-5-yloxy)benzamide] | < 0.01 |
| CC1(C)CCC(CN2CCN(c3ccc(C(=O)NS(=O)(=O)c4ccc(OCC5CN(C6CC6)CCO5)c(Cl)c4)c(Oc4cnc5[nH]ccc5c4)c3)CC2)=C(c2ccc(Cl)cc2)C1 (centres unmarked) [Example 331, N-({3-chloro-4-[(4-cyclopropylmorpholin-2-yl)methoxy]phenyl}sulfonyl)-4-(4-{[2-(4-chlorophenyl)-4,4-dimethylcyclohex-1-en-1-yl]methyl}piperazin-1-yl)-2-(1H-pyrrolo[2,3-b]pyridin-5-yloxy)benzamide] | 1.09 |

Same assay, conditions: Table 5, direct comparison Z=N vs Z=C analogs; read-out: Bcl-2 FRET ki

| SMILES | Ki [nM] |
| --- | --- |
| CC1(C)CCC(CN2CCN(c3ccc(C(=O)NS(=O)(=O)c4ccc(NC[C@@H]5CCCOC5)c([N+](=O)[O-])c4)c(Oc4cnc5[nH]ccc5c4)c3)CC2)=C(c2ccc(Cl)cc2)C1 [Example 11, 4-(4-{[2-(4-chlorophenyl)-4,4-dimethylcyclohex-1-en-1-yl]methyl}piperazin-1-yl)-N-[(3-nitro-4-{[(3S)-tetrahydro-2H-pyran-3-ylmethyl]amino}phenyl)sulfonyl]-2-(1H-pyrrolo[2,3-b]pyridin-5-yloxy)benzamide] | 0.016 |
